According to US7294623B2, “Benzyl morpholine derivatives” (Eli Lilly and Company, priority 2002, dated 2007):
Where a name gives a salt, the structure may show the parent alone.

Structure (SMILES) | melting point
Fc1cccc([C@@H](Sc2ccccc2Cl)[C@H]2CNCCO2)c1 (single isomer, unassigned) (as salt: hydrochloride) [Example 15] | 183 to 187 °C
CCOc1ccccc1S[C@H](c1cccc(F)c1)[C@H]1CNCCO1 (single isomer, unassigned) (as salt: hydrochloride) [Example 14] | 211 to 215 °C
COc1ccccc1S[C@H](c1ccc(Cl)cc1)[C@H]1CNCCO1 (single isomer, unassigned) (as salt: hydrochloride) [Example 12] | 238 to 241 °C
COc1ccccc1S[C@H](c1cccc(F)c1)[C@H]1CNCCO1 (single isomer, unassigned) (as salt: hydrochloride) [Example 13] | 233 to 234 °C
